# Results taken from patent publication US9260425B2 (Genetech, Inc., priority 2011, dated 2016).
# Target: Pim-1 (Homo sapiens (Human), UniProt P11309)
# Assay: Pim kinase binding activity assay (Example 901), PIM-1 enzyme, Caliper microfluidic peptide phosphorylation
# Format: biochemical
# Settings: 20 pM PIM-1, 10 μM ATP, 1 μM FAM-peptide, 90 minutes at room temperature
# Method in brief: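 The readout was microfluidic mobility-shift separation of a FAM-tagged Pim-specific peptide, excited at 488 nm and read at 530 nm, with Ki calculated from percent conversion. Reactions held 20 pM PIM-1, 1 μM peptide and 10 μM ATP in pH 7.2 HEPES/MgCl2/DTT buffer, ran 90 min at room temperature and were stopped with EDTA.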
# Sequence of Pim-1 (P11309 whole entry): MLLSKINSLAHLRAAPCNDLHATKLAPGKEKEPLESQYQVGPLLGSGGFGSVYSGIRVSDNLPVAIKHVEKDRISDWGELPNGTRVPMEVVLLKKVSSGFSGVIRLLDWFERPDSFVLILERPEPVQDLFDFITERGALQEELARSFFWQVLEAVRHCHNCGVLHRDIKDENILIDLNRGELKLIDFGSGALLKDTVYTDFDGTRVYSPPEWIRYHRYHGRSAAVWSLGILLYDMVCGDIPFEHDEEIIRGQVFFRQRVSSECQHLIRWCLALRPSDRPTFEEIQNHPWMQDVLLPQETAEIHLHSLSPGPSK
row,Ki [nM],SMILES
1,0.523,"N[C@H]1CCCN(c2cccc(-c3n[nH]c4cnc(-n5ccnc5)cc34)n2)C1 [Example 380, (S)-1-(6-(5-(1H-imidazol-1-yl)-1H-pyrazolo[3,4-c]pyridin-3-yl)pyridin-2-yl)piperidin-3-amine]"
2,0.041,"Cc1cncc(-c2cc3c(-c4cccc(N5CCNCC5)n4)n[nH]c3cn2)c1 [Example 384, 5-(5-methylpyridin-3-yl)-3-(6-(piperazin-1-yl)pyridin-2-yl)-1H-pyrazolo[3,4-c]pyridine]"
3,0.131,"CCn1cc(-c2cc3c(-c4cccc(N5C[C@@H](N)C[C@@H](F)C5)n4)n[nH]c3cn2)cn1 [Example 385, (3S,5R)-1-(6-(5-(1-ethyl-1H-pyrazol-4-yl)-1H-pyrazolo[3,4-c]pyridin-3-yl)pyridin-2-yl)-5-fluoropiperidin-3-amine]"
4,1.59,"Cn1cc(-c2cc3c(-c4ccc(Br)c(N5CC(N6CCS(=O)(=O)CC6)C5)n4)n[nH]c3cn2)cn1 [Example 387, 4-(1-(3-bromo-6-(5-(1-methyl-1H-pyrazol-4-yl)-1H-pyrazolo[3,4-c]pyridin-3-yl)pyridin-2-yl)azetidin-3-yl)-1,1-dioxothiomorpholine]"
5,0.213,"CC(C)n1cc(-c2cc3c(-c4cccc(N5CCNCC5)n4)n[nH]c3cn2)cn1 [Example 389, 5-(1-isopropyl-1H-pyrazol-4-yl)-3-(6-(piperazin-1-yl)pyridin-2-yl)-1H-pyrazolo[3,4-c]pyridine]"
6,0.108,"FCCn1cc(-c2cc3c(-c4cccc(N5CCNCC5)n4)n[nH]c3cn2)cn1 [Example 391, 5-(1-(2-fluoroethyl)-1H-pyrazol-4-yl)-3-(6-(piperazin-1-yl)pyridin-2-yl)-1H-pyrazolo[3,4-c]pyridine]"
7,0.03,"Cn1cc(-c2cc3c(-c4ccc(Br)c(N5CCC(N)CC5)n4)n[nH]c3cn2)cn1 [Example 392, 1-(3-bromo-6-(5-(1-methyl-1H-pyrazol-4-yl)-1H-pyrazolo[3,4-c]pyridin-3-yl)pyridin-2-yl)piperidin-4-amine]"
8,0.333,"Cn1cc(-c2cc3c(-c4ccc(Br)c(N5CCC[C@H](O)C5)n4)n[nH]c3cn2)cn1 [Example 393, (S)-1-(3-bromo-6-(5-(1-methyl-1H-pyrazol-4-yl)-1H-pyrazolo[3,4-c]pyridin-3-yl)pyridin-2-yl)piperidin-3-ol]"
9,0.316,"Cn1cc(-c2cc3c(-c4ccc(Br)c(N5CCC[C@@H](O)C5)n4)n[nH]c3cn2)cn1 [Example 394, (R)-1-(3-bromo-6-(5-(1-methyl-1H-pyrazol-4-yl)-1H-pyrazolo[3,4-c]pyridin-3-yl)pyridin-2-yl)piperidin-3-ol]"
10,0.404,CCn1cc(-c2cc3c(-c4cccc(N5C[C@H]6CNC[C@H]6C5)n4)n[nH]c3cn2)cn1 [Example 395]
11,0.081,"CCn1cc(-c2cc3c(-c4cccc(N5CCN[C@@H](C)C5)n4)n[nH]c3cn2)cn1 [Example 396, (S)-5-(1-ethyl-1H-pyrazol-4-yl)-3-(6-(3-methylpiperazin-1-yl)pyridin-2-yl)-1H-pyrazolo[3,4-c]pyridine]"
12,0.046,"CCn1cc(-c2cc3c(-c4cccc(N5CCN[C@H](C)C5)n4)n[nH]c3cn2)cn1 [Example 397, (R)-5-(1-ethyl-1H-pyrazol-4-yl)-3-(6-(3-methylpiperazin-1-yl)pyridin-2-yl)-1H-pyrazolo[3,4-c]pyridine]"
13,39.1,"N#Cc1cc2c(-c3cccc(N4CCC[C@@H](N)C4)n3)n[nH]c2cn1 [Example 398, (R)-3-(6-(3-aminopiperidin-1-yl)pyridin-2-yl)-1H-pyrazolo[3,4-c]pyridine-5-carbonitrile]"
14,22.6,"N#Cc1cc2c(-c3cccc(N4CCC[C@H](N)C4)n3)n[nH]c2cn1 [Example 399, (S)-3-(6-(3-aminopiperidin-1-yl)pyridin-2-yl)-1H-pyrazolo[3,4-c]pyridine-5-carbonitrile]"
15,51.1,"N#Cc1cc2c(-c3cccc(N4CCNCC4)n3)n[nH]c2cn1 [Example 400, 3-(6-(piperazin-1-yl)pyridin-2-yl)-1H-pyrazolo[3,4-c]pyridine-5-carbonitrile]"
16,3.29,"c1cc(-c2n[nH]c3cnc(N4CCOCC4)cc23)nc(N2CCNCC2)c1 [Example 401, 4-(3-(6-(piperazin-1-yl)pyridin-2-yl)-1H-pyrazolo[3,4-c]pyridin-5-yl)morpholine]"
17,0.07,"CN1CCN(c2nc(-c3n[nH]c4cnc(-c5cnn(C)c5)cc34)ccc2Br)CC1 [Example 402, 3-(5-bromo-6-(4-methylpiperazin-1-yl)pyridin-2-yl)-5-(1-methyl-1H-pyrazol-4-yl)-1H-pyrazolo[3,4-c]pyridine]"
18,0.04,"CCn1cc(-c2cc3c(-c4ccc(Br)c(N5CCC[C@H](N)C5)n4)n[nH]c3cn2)cn1 [Example 403, (S)-1-(3-bromo-6-(5-(1-ethyl-1H-pyrazol-4-yl)-1H-pyrazolo[3,4-c]pyridin-3-yl)pyridin-2-yl)piperidin-3-amine]"

row,Ki [nM],SMILES
1,0.09,"CCn1cc(-c2cc3c(-c4ccc(Br)c(N5CCNCC5)n4)n[nH]c3cn2)cn1 [Example 404, 3-(5-bromo-6-(piperazin-1-yl)pyridin-2-yl)-5-(1-ethyl-1H-pyrazol-4-yl)-1H-pyrazolo[3,4-c]pyridine]"
2,0.527,"Cn1cc(-c2cc3c(-c4ccc(Br)c(N5CC(N6CCNC(=O)C6)C5)n4)n[nH]c3cn2)cn1 [Example 405, 4-(1-(3-bromo-6-(5-(1-methyl-1H-pyrazol-4-yl)-1H-pyrazolo[3,4-c]pyridin-3-yl)pyridin-2-yl)azetidin-3-yl)piperazin-2-one]"
3,0.259,"Cn1cc(-c2cc3c(-c4ccc(Br)c(N5CCN(CCS(C)(=O)=O)C(C)(C)C5)n4)n[nH]c3cn2)cn1 [Example 406, 3-(5-bromo-6-(3,3-dimethyl-4-(2-(methylsulfonyl)ethyl)piperazin-1-yl)pyridin-2-yl)-5-(1-methyl-1H-pyrazol-4-yl)-1H-pyrazolo[3,4-c]pyridine]"
4,0.02,"CCn1cc(-c2cc3c(-c4cccc(N5CCCNCC5)n4)n[nH]c3cn2)cn1 [Example 409, 3-(6-(1,4-diazepan-1-yl)pyridin-2-yl)-5-(1-ethyl-1H-pyrazol-4-yl)-1H-pyrazolo[3,4-c]pyridine]"
5,0.039,"CCn1cc(-c2cc3c(-c4cccc(N5CCNC[C@H](O)C5)n4)n[nH]c3cn2)cn1 [Example 410, (S)-1-(6-(5-(1-ethyl-1H-pyrazol-4-yl)-1H-pyrazolo[3,4-c]pyridin-3-yl)pyridin-2-yl)-1,4-diazepan-6-ol]"
6,0.014,"CCn1cc(-c2cc3c(-c4cccc(N5CCNC[C@@H](O)C5)n4)n[nH]c3cn2)cn1 [Example 411, (R)-1-(6-(5-(1-ethyl-1H-pyrazol-4-yl)-1H-pyrazolo[3,4-c]pyridin-3-yl)pyridin-2-yl)-1,4-diazepan-6-ol]"
7,0.036,"C=Cc1ccc(-c2n[nH]c3cnc(-c4cnn(C)c4)cc23)nc1N1CCC[C@H](N)C1 [Example 412, (S)-1-(6-(5-(1-methyl-1H-pyrazol-4-yl)-1H-pyrazolo[3,4-c]pyridin-3-yl)-3-vinylpyridin-2-yl)piperidin-3-amine]"
8,1.02,"Cc1ccc(-c2n[nH]c3cnc(-c4cnn(C)c4)cc23)nc1N1CC(N2CCS(=O)(=O)CC2)C1 [Example 413, 4-(1-(3-methyl-6-(5-(1-methyl-1H-pyrazol-4-yl)-1H-pyrazolo[3,4-c]pyridin-3-yl)pyridin-2-yl)azetidin-3-yl)-1,1-dioxo thiomorpholine]"
9,0.028,"C=C(C)c1ccc(-c2n[nH]c3cnc(-c4cnn(C)c4)cc23)nc1N1CCC[C@H](N)C1 [Example 414, (S)-1-(6-(5-(1-methyl-1H-pyrazol-4-yl)-1H-pyrazolo[3,4-c]pyridin-3-yl)-3-(prop-1-en-2-yl)pyridin-2-yl)piperidin-3-amine]"
10,104,"O=C1OCCN1c1cc2c(-c3cccc(N4CCNCC4)n3)n[nH]c2cn1 [Example 415, 3-(3-(6-(piperazin-1-yl)pyridin-2-yl)-1H-pyrazolo[3,4-c]pyridin-5-yl)oxazolidin-2-one]"
11,11.3,"c1cc(-c2n[nH]c3cnc(-c4cnn(CC5COC5)c4)cc23)nc(N2CCNCC2)c1 [Example 416, 5-(1-(oxetan-3-ylmethyl)-1H-pyrazol-4-yl)-3-(6-(piperazin-l-yl)pyridin-2-yl)-1H-pyrazolo[3,4-c]pyridine]"
12,0.11,"Cc1ccc(-c2n[nH]c3cnc(-c4cnn(C)c4)cc23)nc1N1CCC[C@@H](O)C1 [Example 418, (R)-1-(3-methyl-6-(5-(1-methyl-1H-pyrazol-4-yl)-1H-pyrazolo[3,4-c]pyridin-3-yl)pyridin-2-yl)piperidin-3-ol]"
13,0.16,"Cc1ccc(-c2n[nH]c3cnc(-c4cnn(C)c4)cc23)nc1N1CCOCC1 [Example 419, 4-(3-methyl-6-(5-(1-methyl-1H-pyrazol-4-yl)-1H-pyrazolo[3,4-c]pyridin-3-yl)pyridin-2-yl)morpholine]"
14,0.368,"Cn1cc(-c2cc3c(-c4cccc(N5CCOCC5)n4)n[nH]c3cn2)cn1 [Example 420, 4-(6-(5-(1-methyl-1H-pyrazol-4-yl)-1H-pyrazolo[3,4-c]pyridin-3-yl)pyridin-2-yl)morpholine]"
15,0.105,"FC1(c2cccc(-c3n[nH]c4cnc(-c5cccnc5)cc34)n2)CCNCC1 [Example 421, 3-(6-(4-fluoropiperidin-4-yl)pyridin-2-yl)-5-(pyridin-3-yl)-1H-pyrazolo[3,4-c]pyridine]"
16,300,"OC1(c2cccc(-c3n[nH]c4cnc(-c5cccnc5)cc34)n2)CCNCC1 [Example 422, 4-(6-(5-(pyridin-3-yl)-1H-pyrazolo[3,4-c]pyridin-3-yl)pyridin-2-yl)piperidin-4-ol]"
17,0.128,"Cn1cc(-c2cc3c(-c4cccc(N5CCC[C@](C)(O)C5)n4)n[nH]c3cn2)cn1 [Example 423, (S)-3-methyl-1-(6-(5-(1-methyl-1H-pyrazol-4-yl)-1H-pyrazolo[3,4-c]pyridin-3-yl)pyridin-2-yl)piperidin-3-ol]"
